The target in this assay is T1, 5-HT1A serotonin receptor (Rattus norvegicus, UniProt P19327).
T1 construct: following the procedure of Hall et al., J. Neurochem; 44, 1685(1985); from tissue
T1 sequence (P19327 1-422): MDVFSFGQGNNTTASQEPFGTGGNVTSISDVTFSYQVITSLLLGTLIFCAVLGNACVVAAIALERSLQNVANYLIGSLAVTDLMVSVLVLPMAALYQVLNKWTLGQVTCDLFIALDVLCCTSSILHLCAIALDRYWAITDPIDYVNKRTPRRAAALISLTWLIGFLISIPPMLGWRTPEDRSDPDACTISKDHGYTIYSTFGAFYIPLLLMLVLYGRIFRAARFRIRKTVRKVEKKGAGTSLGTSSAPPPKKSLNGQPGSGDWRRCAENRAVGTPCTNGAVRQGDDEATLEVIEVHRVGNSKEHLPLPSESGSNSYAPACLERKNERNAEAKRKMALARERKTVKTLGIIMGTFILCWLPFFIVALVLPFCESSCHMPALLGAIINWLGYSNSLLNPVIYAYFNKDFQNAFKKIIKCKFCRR
Description: displacement of [^3 H] 8-OHDPAT from the 5-HT1A serotonin receptor (procedure of Hall et al.). As to conditions: read-out: 5-HT1A Binding (IC50). An excerpt:
High affinity for the serotonin 5-HT1A receptor was established by testing the claimed compound's ability to displace [^3 H] 8-OHDPAT (dipropylaminotetralin) from the 5-HT1A serotonin receptor following the procedure of Hall et al., J. Neurochem. 44, 1685(1985). […] The anxiolytic activity of buspirone is believed to be, at least partially, due to its 5-HT1A receptor affinity (Vander Maclen et al., Eur. J. Pharmacol. 1986, 129 (1-2) 133-130).
The result of the standard experimental test procedure described in the preceding paragraph was as follows when applied to the representative compound of this invention: […]

In general, IC50 refers to the concentration at which inhibition is half-maximal.

`COc1ccccc1N1CCN(CCC(C(=O)NCCN2CCOCC2)c2ccccc2)CC1` (stereo not shown) [Example 1, 4-[4-(2-Methoxy-phenyl)-piperazin-1-yl]-N-(2-morpholin-4-yl-ethyl)-2phenyl-butyramide]: the IC50 was found to be 95.2 nM.

Values taken from US5602128A, “N-heterocycloalkyl carboxamides as serotonergic agents” (American Home Products Corporation, priority 1994, dated 1997).
